Here are results for 11 compounds from PubChem BioAssay AID2060359 (Molecular Pharmacology Branch, DTP, NCI, 2025).

A word on the viability, T/C: it is the result in the treated group divided by that in the control group, in per cent. One may read the pIC50 as −log10 of the IC50, conventionally taken in molar units.

pIC50: −log10 of the molar value. Several values for one entry are separate records, joined by “and”; a condition that tells them apart may be missing. Equal values may be shown once.

This assay has as its system 276233-004-R-J1-PDC spheroids with HUVEC/MSC, viability. Description: Anticancer human tumor 276233-004-R-J1-PDC patient-derived colon adenocarcinoma cell line growth inhibition [TAK]. The note with it: for viability, T/C: stronger effect = lower value. The text has this: Combinatorial screen of targeted agents with TAK-243 and ipatasertib in multi-cell type tumor spheroids
A high-throughput screen of multi-cell type tumor spheroids was designed to identify active combinations of targeted small molecules and TAK-243 or ipatasertib. Complex spheroids include a stromal component modeled by human endothelial cells (HUVEC) and fibroblasts modeled by human mesenchymal stem cells (MSCs). The concentration ranges selected for each drug and investigational agent were based upon clinically achievable concentrations if the clinical Cmax of the agent was known.
Compounds. The drugs and investigational agents: TAK-243 (785004), ipatasertib (767898), everolimus (733504), selumetinib (741078), bortezomib (756655), trametinib (758246), ixazomib (758254), vemurafenib (761431), dabrafenib (764134), sapanisertib (764658), alpelisib (765974), and copanlisib (816437), were obtained from the National Cancer Institute (NCI) Developmental Therapeutics Program Chemical Repository. The FDA-approved anticancer drug set is available from the NCI Developmental Therapeutics Program. […] The stock solutions were prepared in dimethyl sulfoxide (DMSO, Sigma-Aldrich, St. Louis, MO, cat. D2650) at 800-fold the tested concentration and stored at -70 degrees C prior to their use. All drugs and investigational agents were tested over a range starting from a high concentration at or near the clinical Cmax and decreasing in half-log increments. If the clinical Cmax for an agent had not been determined, the highest concentration tested was 10 microM.
NCI60 Cell Culture. NCI60 cell lines were obtained from the NCI Developmental Therapeutics Program Tumor Repository. For each lot of cells, the Repository performed Applied Biosystems AmpFLSTR Identifiler testing with PCR amplification to confirm consistency with the published Identifier STR profile for each cell line. Cells were kept in continuous culture for no more than 20 passages. The optimal seeding densities for each of the cell lines at each time point assessed were determined prior to performing the concentration response studies. Briefly, the NCI60 human tumor lines were grown as monolayers in RPMI 1640 medium supplemented with 10% FBS and 2 mmol/L L-glutamine.
An additional 2 lines were from the NCI60 cell line panel including melanomas, MALME-3M and SK-MEL-2. Pooled donor human umbilical vein endothelial cells (HUVEC, Lonza, cat. CC-2519) and human mesenchymal stem cells (hMSC, Lonza, cat. PT-2501) were purchased from Lonza (Walkersville, MD).
PDMR cell lines were grown in complete medium (DC medium): Dulbecco's modified Eagle's medium (DMEM)/F12 supplemented with 5% fetal bovine serum (FBS), 2 mM L-glutamine, 100 U/mL penicillin and 100 µg/ml streptomycin, 0.4 µg/ml hydrocortisone, 10 ng/ml epidermal growth factor (EGF) recombinant human protein, 24 µg/mL adenine, and 0.1 mg/mL primocin. During culture from frozen stock vials, PDMR cells were cultured in the same medium containing 10 µM Y-27632 (see Table 3). The PDCs were cultured in complete DMEM/F12 media without 10 microM Y-27632 dihydrochloride for at least two passages prior to the screen. The pooled donor HUVEC and hMSC were cultured in endothelial cell growth medium 2 (PromoCell, Heidelberg, Germany, cat. C-22011) and mesenchymal stem cell growth medium 2 (PromoCell, cat. C-28009), respectively. For all experiments, HUVEC and hMSC were used at passages </=5.
For the pre-screen, cell seeding densities were determined from a titration spanning the range from 5,000 to 313 cells per well. The mct-spheroids including 60% malignant cells, 25% HUVEC and 15% MSC dispensed as a mixture into U-bottom Ultra-Low Attachment 384-well plates (Corning, NY)
High-throughput Drug Combination Screening.
Prior to their inoculation into 384-well plates, malignant cells, HUVEC, and hMSC were removed from T flasks using TrypLE express (Thermo Fisher Scientific, cat. 12605036) and harvested by centrifugation for 5 min at 233 x g. […]
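Further: spheroids exposed to drugs for seven days before the viability read.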

As to `CC(=O)Nc1cccc(-n2c(=O)n(C3CC3)c(=O)c3c(Nc4ccc(I)cc4F)n(C)c(=O)c(C)c32)c1`, the viability, T/C reads like this: (compound 94.9 pM) 92.8% and 120%; (compound 0.0003 µM) 81.6% and 81.1%; (compound 0.000949 µM) 88.4% and 73.1%; (compound 0.003 µM) 70.1% and 70%; (compound 0.00949 µM) 61.6% and 54.3%; (compound 0.03 µM) 37.1% and 44.9%. Besides, where the note is “curve of compound”, the negative logarithm of the IC50 (pIC50) was 7.80 and 7.53.
For the compound `CC(C)(C)c1nc(-c2cccc(NS(=O)(=O)c3c(F)cccc3F)c2F)c(-c2ccnc(N)n2)s1`, the viability, T/C reads like this: (compound 0.0316 µM) 93.4% and 107%; (compound 0.1 µM) 86.3% and 116%; (compound 0.316 µM) 113% and 106%; (compound 1 µM) 86.4% and 100%; (compound 3.16 µM) 77.2% and 58.5%; (compound 10 µM) 84.5% and 86.9%. Moreover, the negative logarithm of the IC50 (pIC50) (curve of compound) was < 5.00.
Turning to `CC(C)CC(NC(=O)C(Cc1ccccc1)NC(=O)c1cnccn1)B(O)O` (configuration not stated), the viability, T/C is 107% and 98.8% (compound 31.6 pM); 88.1% and 105% (compound 0.0001 µM); 97.6% and 93.5% (compound 0.000316 µM); 91.4% and 106% (compound 0.001 µM); 89.8% and 112% (compound 0.00316 µM); 12.6% and 10% (compound 0.01 µM). Further, the negative logarithm of the IC50 (pIC50) (curve of compound) was 8.24 and 8.21.
Take `CC(C)CC(NC(=O)CNC(=O)c1cc(Cl)ccc1Cl)B1OC(=O)CC(CC(=O)O)(C(=O)O)O1` (configuration not stated): the viability, T/C runs as follows: (compound 0.000316 µM) 99.7% and 101%; (compound 0.001 µM) 110% and 108%; (compound 0.00316 µM) 102% and 83.4%; (compound 0.01 µM) 103% and 92.3%; (compound 0.0316 µM) 91.4% and 105%; (compound 0.1 µM) 19.5% and 23.7%. Under “curve of compound”, the pIC50 is 7.21 and 7.18.
`CC(C)NCC(C(=O)N1CCN(c2ncnc3c2C(C)CC3O)CC1)c1ccc(Cl)cc1` (configuration not stated): the viability, T/C (compound 0.949 µM) was 84.7% [middle of 10 runs] and the viability, T/C (compound 3 µM) was 82.2% [middle of 10 runs]. Also, the pIC50 (compound alone, run of 03/19/2020) was < 4.52.
Regarding `CC(C)n1nc(-c2ccc3oc(N)nc3c2)c2c(N)ncnc21`, the viability, T/C by setting is: (compound 0.000316 µM) 104% and 103%; (compound 0.001 µM) 116% and 96.9%; (compound 0.00316 µM) 90.4% and 95.4%; (compound 0.01 µM) 76.1% and 71.7%; (compound 0.0316 µM) 82.8% and 66.4%; (compound 0.1 µM) 62% and 57.5%. For the setting “curve of compound”, the pIC50 is < 7.00.
For the compound `CCCS(=O)(=O)Nc1ccc(F)c(C(=O)c2c[nH]c3ncc(-c4ccc(Cl)cc4)cc23)c1F`, the viability, T/C (compound 0.316 µM) is 81.8% and 103%; the viability, T/C (compound 1 µM) was 84.5% and 105%; the viability, T/C (compound 3.16 µM) is 114% and 104%; the viability, T/C (compound 10 µM) is 103% and 121%; the viability, T/C (compound 31.6 µM) was 103% and 89%; the viability, T/C (compound 100 µM) was 99% and 98.9%. Also, for the setting “curve of compound”, the pIC50 was < 4.00.
With `COC1CC2CCC(C)C(O)(O2)C(=O)C(=O)N2CCCCC2C(=O)OC(C(C)CC2CCC(OCCO)C(OC)C2)CC(=O)C(C)C=C(C)C(O)C(OC)C(=O)C(C)CC(C)C=CC=CC=C1C` (configuration not stated), the viability, T/C is 107% and 100% (compound 0.000316 µM); 94.7% and 93.2% (compound 0.001 µM); 83.6% and 81.6% (compound 0.00316 µM); 78.3% and 67.6% (compound 0.01 µM); 77.4% and 80.3% (compound 0.0316 µM); 66.3% and 64.1% (compound 0.1 µM). For the same compound, the pIC50 (curve of compound) is < 7.00.
Turning to `COc1c(OCCCN2CCOCC2)ccc2c3n(c(=NC(=O)c4cnc(N)nc4)nc12)CCN3`, the viability, T/C is, setting by setting: (compound 0.00316 µM) 82.5% and 97.5%; (compound 0.01 µM) 64.3% and 80.6%; (compound 0.0316 µM) 55.6% and 59.9%; (compound 0.1 µM) 50.8% and 57.9%; (compound 0.316 µM) 43.1% and 47.6%; (compound 1 µM) 47.2% and 63.4%.
As to `Cc1nc(NC(=O)N2CCCC2C(N)=O)sc1-c1ccnc(C(C)(C)C(F)(F)F)c1` (configuration not stated), the viability, T/C is 100% and 88.8% (compound 0.0316 µM); 89.7% and 95.4% (compound 0.1 µM); 80% and 70.7% (compound 0.316 µM); 61.8% and 64.2% (compound 1 µM); 64% and 56.8% (compound 3.16 µM); 42.8% and 50.4% (compound 10 µM). For the setting “curve of compound”, the pIC50 is 5.20 and < 5.00.
`Cn1cnc2c(F)c(Nc3ccc(Br)cc3Cl)c(C(=O)NOCCO)cc21`: the viability, T/C (compound 0.00949 µM) was 83.5% and 81.4%; the viability, T/C (compound 0.03 µM) is 81.7% and 79.9%; the viability, T/C (compound 0.0949 µM) was 62.3% and 70.2%; the viability, T/C (compound 0.3 µM) was 70.4% and 70.3%; the viability, T/C (compound 0.949 µM) was 57% and 62.4%; the viability, T/C (compound 3 µM) is 45.9% and 44.9%. In addition, under “curve of compound”, the pIC50 is 5.68 and 5.66.
